Structures are written as SMILES. Numbering of substitutions follows the chain as printed.

Holding throughout (experiment): FRET by acceptor photobleaching, DHE donor to GFP acceptor, fixed transfected HEK293-FT cells
Common to all, as to type: cell-based

The target in assay [1] is T1, CUP-1-GFP (Cholesterol Uptake Protein-1; ZK721.1/tag-130) (Caenorhabditis elegans, UniProt Q9GYF0, Y126G).
T1 construct: gene chup-1; full-length CUP-1 (stop codon removed) with C-terminal EGFP (pEGFP-N1), transiently expressed in HEK293-FT cells
T1 sequence (Q9GYF0 19-756 Y126G): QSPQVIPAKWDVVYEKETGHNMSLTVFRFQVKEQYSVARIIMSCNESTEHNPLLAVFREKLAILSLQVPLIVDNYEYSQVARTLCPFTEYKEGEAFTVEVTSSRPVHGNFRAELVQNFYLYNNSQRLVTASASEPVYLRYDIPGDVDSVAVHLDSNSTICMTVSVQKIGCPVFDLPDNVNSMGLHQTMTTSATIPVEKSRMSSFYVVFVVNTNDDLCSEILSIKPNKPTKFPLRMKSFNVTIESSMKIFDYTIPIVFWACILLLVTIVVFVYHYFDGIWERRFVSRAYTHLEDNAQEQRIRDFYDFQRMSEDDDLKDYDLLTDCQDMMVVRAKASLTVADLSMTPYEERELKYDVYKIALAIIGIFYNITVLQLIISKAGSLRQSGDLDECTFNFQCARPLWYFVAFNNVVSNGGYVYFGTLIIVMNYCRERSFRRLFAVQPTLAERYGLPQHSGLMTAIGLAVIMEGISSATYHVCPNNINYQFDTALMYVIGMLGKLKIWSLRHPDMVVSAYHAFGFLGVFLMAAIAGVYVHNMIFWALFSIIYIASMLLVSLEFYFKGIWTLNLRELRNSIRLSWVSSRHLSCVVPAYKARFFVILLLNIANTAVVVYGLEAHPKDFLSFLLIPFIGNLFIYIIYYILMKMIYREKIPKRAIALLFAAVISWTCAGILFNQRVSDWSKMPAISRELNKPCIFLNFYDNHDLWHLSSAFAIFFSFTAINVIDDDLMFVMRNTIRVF
Conditions: 5 uM DHE, 35 min, 37 °C; extracellular CRAC motif mutant.

In assay [2] the target is T2, CUP-1-GFP (Cholesterol Uptake Protein-1; ZK721.1/tag-130) (Caenorhabditis elegans, UniProt Q9GYF0, Y576G).
T2 construct: gene chup-1; full-length CUP-1 (stop codon removed) with C-terminal EGFP (pEGFP-N1), transiently expressed in HEK293-FT cells; GFP is the FRET acceptor
T2 sequence (Q9GYF0 19-756 Y576G): T1 sequence (Q9GYF0 19-756 Y126G) with G108Y, Y558G
The note with it: 5 uM DHE, 35 min, 37 °C; transmembrane CRAC motif mutant.

Assay [3] deals with T3, CUP-1-GFP (Cholesterol Uptake Protein-1; ZK721.1/tag-130) (Caenorhabditis elegans, UniProt Q9GYF0).
T3 construct: gene chup-1; full-length CUP-1 (stop codon removed) with C-terminal EGFP (pEGFP-N1), transiently expressed in HEK293-FT cells
T3 sequence (Q9GYF0 19-756): T1 sequence (Q9GYF0 19-756 Y126G) with G108Y
The note with it: 5 uM DHE, 35 min, 37 °C; soluble GFP control.

Assay [4] addresses T4, CUP-1-GFP (Cholesterol Uptake Protein-1; ZK721.1/tag-130) (Caenorhabditis elegans, UniProt Q9GYF0, Y126G/Y576G).
T4 construct: gene chup-1; full-length CUP-1 (stop codon removed) with C-terminal EGFP (pEGFP-N1), transiently expressed in HEK293-FT cells; GFP is the FRET acceptor
T4 sequence (Q9GYF0 19-756 Y126G/Y576G): T1 sequence (Q9GYF0 19-756 Y126G) with Y558G
The note with it: 5 uM DHE, 35 min, 37 °C; double CRAC mutant.

As for `CC(C)[C@@H](C)/C=C/[C@@H](C)[C@H]1CC[C@H]2C3=CC=C4C[C@@H](O)CC[C@]4(C)C3=CC[C@]12C` [DHE, Dehydroergosterol], the FRETeff entry in assay [1] is “Mutagenization of the extracellular CRAC motif did not result in a statistically significant reduction”; in assay [2], 16.7%; in assay [3], more than 28%; in assay [4], 17.8%.

These data come from article PMC3313951, “CUP-1 Is a Novel Protein Involved in Dietary Cholesterol Uptake in Caenorhabditis elegans” (PLoS ONE, 2012).
